Measured values: US20210332024A1, “MODULATORS OF PIN1 ACTIVITY AND USES THEREOF” (Yeda Research and Development Co. Ltd., priority 2019, published 2021)
Where “and” joins values, the source holds several entries; their conditions need not be identical. Equal entries are not always repeated. Where two headings read alike, the source gives them in different places.

Experiments:
[1] = Thiol reactivity assay (DTNB); type: physicochemical; settings: 200 μM compound, pH 7.4, 37° C.
Method: 50 μM DTNB (dithionitrobenzoic acid) was incubated with 200 μM TCEP (tris(2-carboxytehyl)phosphine) in 20 mM sodium phosphate buffer (pH 7.4) with 150 mM NaCl, for 5 minutes at room temperature, in order to obtain TNB^2− (thionitrobenzoate dianion). 200 μM compounds were subsequently added to the TNB^2−, followed by immediate UV absorbance measurement at 412 nm (at 37° C.). The UV absorbance was acquired every 15 minutes for 7 hours. The assay was performed in a 384-well plate using a Spark™ 10M plate reader (Tecan). Background absorbance of compounds was subtracted by measuring the absorbance at 412 nm of each compound under the same conditions without DTNB. Compounds were measured in triplicates. The data was fitted to a second order reaction equation such that the rate constant k is the slope of ln([A][B0]/[B][A0]), where [A0] and [B0] are the initial concentrations of the compound (200 μM) and TNB^2− (100 μM) respectively, and [A] and [B] are the remaining concentrations as a function of time, as determined from the spectrometric measurement. Linear regression using Prism® software was performed to fit the rate against the first four hours of measurements.
In order to estimate the influence of the various lipophilic moieties on “warhead” reactivity [Flanagan et al., J Med Chem 2014, 57:10072-10079; Lonsdale et al., J Chem Inf Model 2017, 57:3124-3137; Dahal et al., Medchemcomm 2016, 7:864-872], the thiol reactivity of the top ten binders of the second and third generation was assessed using a high-throughput assay previously applied to the entire fragment library, as described in Resnick et al. [J Am Chem Soc 2019, 141:8951-8968]. In brief, the second-order rate constant was evaluated for a model thiol, which reflects trends in general reactivity towards thiol groups.

Pin1 = target: T1, Pin1 (Mus musculus, UniProt Q9QUR7); assay: In vivo Pin1 engagement, spleen competition pull-down; parameters: species or system mice
T1 construct: from tissue; host or cells: mouse spleen
T1 sequence (Q9QUR7 whole entry): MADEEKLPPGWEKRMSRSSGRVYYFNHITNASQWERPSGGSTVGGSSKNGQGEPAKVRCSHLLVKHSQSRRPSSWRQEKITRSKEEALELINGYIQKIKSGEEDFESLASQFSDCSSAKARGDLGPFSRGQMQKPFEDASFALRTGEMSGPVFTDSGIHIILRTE
Method: The in vivo engagement of Pin1 by Pin1-3 was then assessed using Pin1-3-DTB. Mice were treated with either vehicle, 10 mg/kg or 20 mg/kg Pin1-3 by oral gavage (QD) for 3 days, followed by lysis of the spleens for a competition pull-down experiment.

[2] = tested on: 8988T pancreatic adenocarcinoma cells; assay: Prolonged-treatment cell growth, wild-type 8988T; type: cell-based; settings: 1 μM, 6-8 days
Method: (§1) The ability of Pin1-3 treatment to induce more pronounced anti-proliferative effects after prolonged treatment (6-8 days) was then assessed. In order to ensure that target engagement was maintained for the duration of the experiment, Pin1-3 was replenished in fresh media every 48 hours.
(§2) The effect of Pin1-binding compounds on 8988T pancreatic adenocarcinoma cells was assessed by incubating cells with 1 μM Pin1-3, and evaluating cell growth relative to cells incubated with vehicle (DMSO) alone. In order to confirm that the effect of Pin1-3 is mediated by Pin1, the experiment was repeated using Pin1 knockout cells.

[3] = tested on: Pin1-knockout 8988T pancreatic cancer cells; assay: Prolonged-treatment cell growth, Pin1-knockout 8988T; type: cell-based; settings: 1 μM
Method: as §1, §2

[4] = tested on: PC3 prostate cancer cells; assay: Prolonged-treatment cell growth, PC3; type: cell-based; settings: PC3, 1 or 2.5 μM
Method: as §1

[5] = Pharmacokinetics, oral administration; type: in vivo, Male C57Bl/6J mice; settings: for AUC(0-inf): read-out: AUCINF obs. (converted)
Method: Male C57Bl/6J mice received Pin1-3 intravenously (as a 0.2 mg/ml solution in 5/5/90 NMP/Solutol/saline) or orally (as a 1 mg/ml solution in 5/5/90 NMP/Solutol/saline). The intravenous dosage was 2 mg/kg and the oral dosage was 10 mg/kg.

Acute toxic model = type: in vivo, mice; settings: 10, 20 or 40 mg/kg intraperitoneally every day for two weeks
Method: Toxicity of Pin1-3 was then evaluated in an acute toxic model. Mice were injected with 10, 20 or 40 mg/kg Pin1-3 intraperitoneally every day for two weeks.

PDAC organoids = assay: PDAC organoid growth; type: cell-based, human; settings: treated for 7 days
Method: Pancreatic ductal adenocarcinoma (PDAC) cells (derived from a human patient) were treated with Pin1-3 for 3 days. PDAC organoids were treated with Pin1-3 for 7 days (day 7 to day 14).

[6] = tested on: PDX (patient-derived xenograft) tumors; assay: PDX orthotopic xenograft mouse model; type: in vivo; settings: IP 2 or 4 mg/kg every day, 6 weeks
Method: 4×2 mm PDX (patient-derived xenograft) tumors were transplanted into NSC mouse pancreas (orthotopic xenografts). After 1 week of the transplantation, treatment of mice with Pin1-3 began. Mice were treated (IP) with Pin1-3 diluted solution (as a control), or 2 or 4 mg/kg […] every day. Tumor size were measured and mice were sacrificed after 6 weeks to collect tumor tissue (n=5).

[7] = target: cysteine targets throughout the proteome, MDA-MB-231 cells (Homo sapiens, UniProt Q13526); assay: rdTOP-ABPP profiling of reactive cysteines; settings: 5 μM, two biological replicates
cysteine targets throughout the proteome, MDA-MB-231 cells (Homo sapiens, UniProt Q13526), sequence (Q13526 whole entry): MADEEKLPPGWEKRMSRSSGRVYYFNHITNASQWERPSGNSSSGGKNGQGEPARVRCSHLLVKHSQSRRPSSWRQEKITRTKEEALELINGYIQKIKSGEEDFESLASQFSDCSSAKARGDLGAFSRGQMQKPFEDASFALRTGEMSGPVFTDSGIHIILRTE
Method: (§3) MDA-MB-231 cells were cultured at 37° C. under a 5% CO2 atmosphere in DMEM culture medium supplemented with 10% FBS and 1% PS. Cells were grown to 70% confluence and incubated with DMSO or 5 μM Pin1-3 for 2 hours with serum-free medium. Cells were harvested, lysed by sonication in ice-cold PBS containing 0.1% Triton™ X-100 and centrifuged at 100,000 g for 30 minutes to remove cell debris. Then protein concentrations were determined by BCA protein assay. Proteomes were normalized to 2 mg/ml in 1 ml for each sample. Each of the DMSO and Pin1-3 incubated proteomes was treated with 100 μM iodoacetamide alkyne for 1 hour at room temperature. […] Finally, the samples were prepared, analyzed on LC-MS/MS and quantified according to procedures described in Yang et al. [Anal Chem 2018, 90:9576-9582]. […] LC-MS/MS data was analyzed by ProLuCID™ algorithm (as described by Xu et al. [J Proteomics 2015, 129:16-24]) with static modification of cysteine (+57.0215 Da) and variable oxidation of methionine (+15.9949 Da). […] The ratios were quantified by CImage™ software [Weerapana et al., Nature 2010, 468, 790-795].
(§4) This variant of the isoTOP-ABPP technique enables the site-specific quantification of cysteine binding by label-free covalent inhibitors. […] After enrichment on beads, the peptides were isotopically derivatized by triplex reductive dimethylation, cleaved and analyzed via LC-MS/MS analysis.

[8] = tested on: cysteine targets throughout the proteome, MDA-MB-231 cells; assay: rdTOP-ABPP profiling of reactive cysteines; settings: 5 μM
Method: as §3, §4

[9] = male, C57Bl/6J, mouse, in vivo, po, 10 mg/kg, oral 10 mg/kg, Avg. of 3 mice
[10] = male, C57Bl/6J, mouse, in vivo, po, 10 mg/kg, oral 10 mg/kg, individual mice No. 1-3
[11] = oral 10 mg/kg, individual mice No. 1-3, 10 mg/kg

## CC(C)(C)CN(C(=O)CCl)C1CCS(=O)(=O)C1 (stereo not shown) [Pin1-3, 2-chloro-N-(sulfolan-3-yl)-N-neopentylacetamide]
[1]
  Reactivity Log k: −7.43
  Reactivity k: 3.73e-08 M⁻¹ s⁻¹
Pin1; 10 mg/kg oral gavage QD for 3 days
  Mice with effective Pin1 engagement: 1 of the 3 mice
Pin1; 20 mg/kg oral gavage QD for 3 days
  Mice with effective Pin1 engagement: all 3 mice
[2]
  Cell viability / growth: reduced pancreatic cancer cell viability
[3]
  Cell viability / growth: no considerable effect
[4]
  Cell growth: long-term inhibition
[5]; [9]
  AUC(0-t): 9210 ng·h/mL and 32.8 µM·h
  Tmax: 25.2 min
  half-life: 49.2 min
  AUC(0-inf): 9230 ng·h/mL
[5]; male, C57Bl/6J, mouse, in vivo, po, 10 mg/kg, oral 10 mg/kg, Avg. of 3 mice, read-out: Cmax
  Cmax: 11.5 µM and 3220 ng/mL
[5]; [10]
  AUC(0-t): 9590 ng·h/mL and 34.1 µM·h
  Tmax: 15 min
  half-life: 38.4 min
  AUC(0-inf): 9600 ng·h/mL
[5]; male, C57Bl/6J, mouse, in vivo, po, 10 mg/kg, oral 10 mg/kg, individual mice No. 1-3, read-out: Cmax
  Cmax: 4050 ng/mL and 14.4 µM
[5]; male, C57Bl/6J, mouse, in vivo, oral 10 mg/kg vs intravenous 2 mg/kg, Avg., read-out: F % (oral bioavailability)
  bioavailability: 30.4%
[5]; oral 10 mg/kg, Avg. of 3 mice
  AUC % extrap.: 0.24%
  Cl obs.: 18.15 mL/min/kg
[5]; [11]
  AUC % extrap.: 0.03% and 0.32% and 0.38%
  AUCINF obs.: 498172 ng·min/mL and 587646 ng·min/mL
  AUClast: 496559 min*ng/ml and 29.4 hr*μM and 585438 min*ng/ml and 34.7 hr*μM
  Cl obs.: 17.37 mL/min/kg and 20.07 mL/min/kg and 17.02 mL/min/kg
  Cmax: 2420 ng/mL and 3200 ng/mL
  T1/2: 54.6 min and 55.2 min
[5]; oral 10 mg/kg, individual mice No. 1-3, 10 mg/kg, read-out: Cmax
  Cmax: 8.61 µM and 11.4 µM
Acute toxic model
  Adverse effects: No adverse effects
  Post-mortem examination: no pathologies
  Weight: normal
PDAC organoids
  PDAC organoid growth: inhibited PDAC organoid growth in a dose-dependent manner
[6]
  PDX tumor growth: inhibited PDX tumor growth in mice in a dose-dependent manner
[7]
  Competition ratio R, Cys113 of Pin1: 15
[8]
  Competition ratio R, all other identified cysteines: below 2.5
